According to US20200392158A1, “INHIBITORS OF LEUCINE RICH REPEAT KINASE 2” (GLAXOSMITHKLINE INTELLECTUAL PROPERTY DEVELOPMENT LIMITED, priority 2017, published 2020):

Assays:
[1] = target: T1, full length G2019 human LRRK2 (Homo sapiens, UniProt Q5S007, R50H); assay: Full length G2019 human LRRK2 inhibition mass spectrometry assay; assay type: biochemical; conditions: LRRKtide to phospho-LRRKtide conversion, RapidFire MS, 2 mM ATP
T1 construct: made in house; host or cells: HEK293 6E cells transduced with BacMam virus (virus generated in Sf9 cells)
In short: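 Purified full-length Flag-tagged G2019 LRRK2, ~25 nM, with 25 μM LRRKtide and 2 mM ATP in 50 mM Hepes pH 7.2, 10 mM MgCl2, 150 mM NaCl, 1 h at room temperature. Quenched with formic acid; phospho- and unphosphorylated LRRKtide measured by RapidFire MS. pIC50 from 4-parameter fit of % conversion, 11 points, top 100 μM.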

[2] = target: T2, LRRK2 kinase in SH-SY5Y cells over-expressing recombinant full length LRRK2 (Homo sapiens, UniProt Q5S007); assay: Recombinant cellular LRRK2 AlphaScreen assay (LRRK2 Ser935 phosphorylation); assay type: cell-based; conditions: 60 min
T2 construct: A BacMam virus expressing full length recombinant LRRK2 was purchased from Invitrogen; host or cells: SH-SY5Y human neuroblastoma cells transduced with BacMam LRRK2 virus
In short: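 SH-SY5Y cells transduced with BacMam full-length LRRK2 (MOI 50) for 24 h, then treated 60 min at 37 °C with compound (11-point 1:4 series, top 10 uM, 0.1% DMSO). Lysates probed by AlphaScreen for pSer935 vs total LRRK2; values fitted to a sigmoidal dose-response model.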

T1 sequence (Q5S007 with tags, fused parts or gaps R50H): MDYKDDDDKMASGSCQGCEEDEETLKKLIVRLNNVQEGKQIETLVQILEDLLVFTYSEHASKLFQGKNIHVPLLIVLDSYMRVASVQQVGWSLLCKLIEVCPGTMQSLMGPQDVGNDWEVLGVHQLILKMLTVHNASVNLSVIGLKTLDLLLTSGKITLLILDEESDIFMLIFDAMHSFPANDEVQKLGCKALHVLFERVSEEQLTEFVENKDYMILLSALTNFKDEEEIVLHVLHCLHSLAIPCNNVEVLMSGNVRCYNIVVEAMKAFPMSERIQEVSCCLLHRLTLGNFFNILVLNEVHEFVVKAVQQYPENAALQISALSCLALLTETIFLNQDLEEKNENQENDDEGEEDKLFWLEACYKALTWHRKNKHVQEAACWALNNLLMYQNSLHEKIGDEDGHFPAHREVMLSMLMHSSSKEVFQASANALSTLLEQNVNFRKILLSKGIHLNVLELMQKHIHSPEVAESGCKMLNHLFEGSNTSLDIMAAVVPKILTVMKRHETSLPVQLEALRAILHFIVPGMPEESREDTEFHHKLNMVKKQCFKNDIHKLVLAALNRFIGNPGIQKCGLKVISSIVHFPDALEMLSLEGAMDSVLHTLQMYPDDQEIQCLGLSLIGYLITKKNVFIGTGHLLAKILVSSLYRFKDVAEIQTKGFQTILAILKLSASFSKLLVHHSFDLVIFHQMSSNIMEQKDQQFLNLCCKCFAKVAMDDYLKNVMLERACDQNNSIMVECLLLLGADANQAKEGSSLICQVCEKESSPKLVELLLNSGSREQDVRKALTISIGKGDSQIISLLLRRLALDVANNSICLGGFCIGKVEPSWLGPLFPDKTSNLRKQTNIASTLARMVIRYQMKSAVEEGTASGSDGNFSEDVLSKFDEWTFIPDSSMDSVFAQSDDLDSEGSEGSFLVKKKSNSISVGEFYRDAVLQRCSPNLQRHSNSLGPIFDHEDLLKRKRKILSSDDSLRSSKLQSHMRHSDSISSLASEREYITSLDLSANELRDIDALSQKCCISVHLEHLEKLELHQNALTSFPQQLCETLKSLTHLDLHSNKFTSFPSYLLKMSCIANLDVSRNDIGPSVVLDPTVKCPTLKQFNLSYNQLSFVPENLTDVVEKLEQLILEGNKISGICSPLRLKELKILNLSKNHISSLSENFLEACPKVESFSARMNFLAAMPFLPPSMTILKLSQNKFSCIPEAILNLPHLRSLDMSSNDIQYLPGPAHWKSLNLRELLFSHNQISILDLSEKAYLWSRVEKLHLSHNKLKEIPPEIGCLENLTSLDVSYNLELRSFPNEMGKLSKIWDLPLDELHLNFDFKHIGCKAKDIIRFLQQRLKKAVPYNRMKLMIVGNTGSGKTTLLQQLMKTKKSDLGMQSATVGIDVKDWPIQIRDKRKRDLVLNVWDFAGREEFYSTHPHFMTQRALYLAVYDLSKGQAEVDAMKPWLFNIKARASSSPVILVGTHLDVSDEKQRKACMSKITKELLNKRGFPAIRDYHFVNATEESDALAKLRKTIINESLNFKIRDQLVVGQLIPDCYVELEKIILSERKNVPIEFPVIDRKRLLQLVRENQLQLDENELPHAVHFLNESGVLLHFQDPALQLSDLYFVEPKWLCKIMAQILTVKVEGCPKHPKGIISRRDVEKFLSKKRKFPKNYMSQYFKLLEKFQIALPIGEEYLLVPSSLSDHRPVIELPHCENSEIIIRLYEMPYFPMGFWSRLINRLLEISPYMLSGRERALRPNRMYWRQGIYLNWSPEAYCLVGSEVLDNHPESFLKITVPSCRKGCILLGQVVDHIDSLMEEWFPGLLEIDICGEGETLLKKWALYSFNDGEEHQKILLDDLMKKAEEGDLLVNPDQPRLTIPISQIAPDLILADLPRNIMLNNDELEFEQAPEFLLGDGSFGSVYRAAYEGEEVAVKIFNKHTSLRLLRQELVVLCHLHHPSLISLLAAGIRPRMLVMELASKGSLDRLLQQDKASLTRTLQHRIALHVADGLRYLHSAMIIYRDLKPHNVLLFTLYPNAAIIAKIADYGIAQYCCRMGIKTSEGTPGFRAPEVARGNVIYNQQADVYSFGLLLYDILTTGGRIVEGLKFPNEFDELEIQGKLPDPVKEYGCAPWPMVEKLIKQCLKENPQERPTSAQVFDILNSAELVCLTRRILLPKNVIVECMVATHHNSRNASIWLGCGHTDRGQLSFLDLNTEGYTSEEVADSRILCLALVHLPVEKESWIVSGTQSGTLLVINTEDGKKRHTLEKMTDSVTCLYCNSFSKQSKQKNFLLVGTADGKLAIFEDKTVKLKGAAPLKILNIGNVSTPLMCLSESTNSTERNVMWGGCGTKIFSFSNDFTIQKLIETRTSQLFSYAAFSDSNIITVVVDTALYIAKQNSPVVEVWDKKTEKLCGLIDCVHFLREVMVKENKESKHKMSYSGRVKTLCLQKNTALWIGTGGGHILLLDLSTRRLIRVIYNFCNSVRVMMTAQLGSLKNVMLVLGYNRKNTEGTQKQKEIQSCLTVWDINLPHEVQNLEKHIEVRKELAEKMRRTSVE
T2 sequence (Q5S007 whole entry): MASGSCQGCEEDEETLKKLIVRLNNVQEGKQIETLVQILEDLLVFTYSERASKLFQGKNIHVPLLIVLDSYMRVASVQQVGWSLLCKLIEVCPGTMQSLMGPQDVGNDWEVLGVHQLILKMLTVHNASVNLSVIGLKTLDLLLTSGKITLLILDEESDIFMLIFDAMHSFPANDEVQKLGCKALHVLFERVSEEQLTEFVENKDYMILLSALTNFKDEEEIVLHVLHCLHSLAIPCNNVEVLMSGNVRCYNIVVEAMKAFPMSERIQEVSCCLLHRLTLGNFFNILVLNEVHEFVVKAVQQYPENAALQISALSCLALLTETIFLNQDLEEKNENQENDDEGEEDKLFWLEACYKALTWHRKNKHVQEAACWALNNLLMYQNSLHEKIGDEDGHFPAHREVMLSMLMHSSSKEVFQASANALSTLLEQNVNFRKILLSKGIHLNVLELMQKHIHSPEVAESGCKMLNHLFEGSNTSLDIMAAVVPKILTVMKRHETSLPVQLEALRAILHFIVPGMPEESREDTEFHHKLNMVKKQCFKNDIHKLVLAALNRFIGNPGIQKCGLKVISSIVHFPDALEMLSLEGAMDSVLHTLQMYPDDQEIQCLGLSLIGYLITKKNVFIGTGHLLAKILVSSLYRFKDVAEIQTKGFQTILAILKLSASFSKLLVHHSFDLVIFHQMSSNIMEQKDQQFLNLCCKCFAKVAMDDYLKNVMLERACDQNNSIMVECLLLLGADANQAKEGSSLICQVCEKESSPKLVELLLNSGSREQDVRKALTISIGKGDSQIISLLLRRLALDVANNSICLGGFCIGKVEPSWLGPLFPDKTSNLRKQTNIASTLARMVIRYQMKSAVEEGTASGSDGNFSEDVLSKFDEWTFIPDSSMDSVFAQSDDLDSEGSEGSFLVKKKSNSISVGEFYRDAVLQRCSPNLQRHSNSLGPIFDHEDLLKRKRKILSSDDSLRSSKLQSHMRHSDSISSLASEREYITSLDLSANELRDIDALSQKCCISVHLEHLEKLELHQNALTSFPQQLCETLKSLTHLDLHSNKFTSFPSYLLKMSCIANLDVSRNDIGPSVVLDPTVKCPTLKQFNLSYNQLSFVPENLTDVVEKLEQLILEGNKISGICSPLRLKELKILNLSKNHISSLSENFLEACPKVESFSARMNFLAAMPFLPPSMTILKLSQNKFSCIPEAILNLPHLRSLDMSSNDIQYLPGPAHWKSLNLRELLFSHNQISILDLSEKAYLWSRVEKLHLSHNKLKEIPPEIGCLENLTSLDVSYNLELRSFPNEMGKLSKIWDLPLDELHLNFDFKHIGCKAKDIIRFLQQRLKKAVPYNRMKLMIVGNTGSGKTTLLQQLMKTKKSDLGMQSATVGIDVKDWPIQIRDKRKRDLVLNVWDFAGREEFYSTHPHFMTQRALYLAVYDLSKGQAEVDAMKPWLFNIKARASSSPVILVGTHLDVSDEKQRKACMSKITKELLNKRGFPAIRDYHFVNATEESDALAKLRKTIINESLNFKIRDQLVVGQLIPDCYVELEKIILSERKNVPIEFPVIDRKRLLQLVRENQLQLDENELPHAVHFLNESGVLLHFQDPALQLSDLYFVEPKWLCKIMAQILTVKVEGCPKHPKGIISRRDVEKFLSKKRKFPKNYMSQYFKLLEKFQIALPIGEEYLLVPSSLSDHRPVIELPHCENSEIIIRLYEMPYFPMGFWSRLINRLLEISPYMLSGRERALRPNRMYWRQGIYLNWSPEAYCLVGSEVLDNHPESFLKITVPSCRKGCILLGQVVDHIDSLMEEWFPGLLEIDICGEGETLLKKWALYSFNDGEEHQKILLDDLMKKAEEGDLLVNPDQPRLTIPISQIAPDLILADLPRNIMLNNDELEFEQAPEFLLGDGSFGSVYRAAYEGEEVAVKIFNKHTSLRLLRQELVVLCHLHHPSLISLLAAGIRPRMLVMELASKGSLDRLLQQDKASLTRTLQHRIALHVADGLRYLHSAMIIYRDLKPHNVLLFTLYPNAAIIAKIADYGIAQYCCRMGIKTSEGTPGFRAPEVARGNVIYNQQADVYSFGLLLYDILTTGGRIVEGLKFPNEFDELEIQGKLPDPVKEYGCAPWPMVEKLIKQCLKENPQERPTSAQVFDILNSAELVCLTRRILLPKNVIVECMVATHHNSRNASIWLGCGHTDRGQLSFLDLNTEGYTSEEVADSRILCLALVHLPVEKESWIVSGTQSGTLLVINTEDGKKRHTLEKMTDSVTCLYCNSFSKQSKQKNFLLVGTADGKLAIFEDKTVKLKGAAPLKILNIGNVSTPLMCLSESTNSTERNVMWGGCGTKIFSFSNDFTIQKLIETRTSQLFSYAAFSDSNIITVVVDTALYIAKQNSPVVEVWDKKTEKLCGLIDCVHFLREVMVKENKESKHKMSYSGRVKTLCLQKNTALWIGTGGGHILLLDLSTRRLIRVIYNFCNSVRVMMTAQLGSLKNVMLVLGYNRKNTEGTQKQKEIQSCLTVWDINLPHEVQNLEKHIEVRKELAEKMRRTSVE

Row | SMILES | IC50 [1] [nM] | IC50 [2] [nM]
1 | Cc1c2c(nn1[C@@H]1CCOC1)OCC[C@@H](C)Nc1nc(ncc1Cl)N2 [E47, (11R)-14-chloro-4,11-dimethyl-5-[(3R)-oxolan-3-yl]-8-oxa-2,5,6,12,16,17-hexaaza tricyclo [11.3.1.0^3,7]heptadeca-1(16),3,6,13(17),14-pentaene] | ≤ 100 | ≤ 100
2 | Clc1cnc2nc1NCCCOc1n[nH]c(Cl)c1N2 [E396, 4,14-Dichloro-8-oxa-2,5,6,12,16,17 hexaazatricyclo[11.3.1.0^3,7] heptadeca-1(16),3,6,13(17),14-pentaene] | ≤ 100 | ≤ 100
3 | Cc1c2c(nn1C1CCOCC1)OCC[C@@H](C)Nc1nc(ncc1Cl)N2 [E6, (11R)-14-Chloro-4,11-dimethyl-5-(oxan-4-yl)-8-oxa-2,5,6,12,16,17-hexaazatricyclo [11.3.1.0^3,7]heptadeca-1(16),3,6,13(17),14-pentaene] | ≤ 100 | ≤ 100
4 | Cc1c2c(nn1C1CCOCC1)OCC(F)(F)CNc1nc(ncc1Cl)N2 [E377, 14-Chloro-10,10-difluoro-4-methyl-5-(oxan-4-yl)-8-oxa-2,5,6,12,16,17-hexaazatricyclo[11.3.1.0^3,7]heptadeca-1(16),3,6,13(17),14-pentaene] | ≤ 100 | ≤ 100
5 | Cc1[nH]nc2c1Nc1ncc(Br)c(n1)NCCCO2 [E432, 14-Bromo-4-methyl-8-oxa-2,5,6,12,16,17-hexaazatricyclo[11.3.1.0^3,7]heptadeca-1(16),3,6,13(17),14-pentaene] | ≤ 100 | ≤ 100
6 | Cc1c2c(nn1C(C)(C)C#N)OCCCNc1nc(ncc1Cl)N2 [E191, 2-{14-Chloro-4-methyl-8-oxa-2,5,6,12,16,17-hexaazatricyclo [11.3.1.0^3,7]heptadeca-1(16),3,6,13(17),14-pentaen-5-yl}-2-methylpropanenitrile] | ≤ 100 | ≤ 100
7 | Cc1c2c(nn1C(C)C1CCOCC1)OCCC(C)Nc1nc(ncc1Cl)N2 (single isomer, unassigned) [E183, 14-Chloro-4,11-dimethyl-5-[1-(oxan-4-yl)ethyl]-8-oxa-2,5,6,12,16,17-hexaazatricyclo[11.3.1.0^3,7]heptadeca-1(16),3,6,13(17),14-pentaene] | ≤ 100 | ≤ 100
8 | COC1CNc2nc(ncc2Cl)Nc2c(nn(C3COC3)c2C)OC1 (single isomer, unassigned) [E270, 14-Chloro-10-methoxy-4-methyl-5-(oxetan-3-yl)-8-oxa-2,5,6,12,16,17-hexaazatricyclo[11.3.1.0^3,7]heptadeca-1(16),3,6,13(17),14-pentaene] | ≤ 100 | ≤ 100
9 | Cc1c2c(nn1C1CCN(C3COC3)CC1(F)F)OCC[C@@H](C)Nc1nc(ncc1Cl)N2 (stereo partly drawn) [E411, (11R)-14-Chloro-5-[3,3-difluoro-1-(oxetan-3-yl)piperidin-4-yl]-4,11-dimethyl-8-oxa-2,5,6,12,16,17-hexaazatricyclo[11.3.1. 0^3,7]heptadeca-1(16),3,6,13(17),14-pentaene] | ≤ 100 | ≤ 100
10 | COC1CNc2nc(ncc2Cl)Nc2c(nn(C3CCOCC3F)c2C)OC1 (single isomer, unassigned) [E70, 14-Chloro-5-(3-fluorooxan-4-yl)-10-methoxy-4-methyl-8-oxa-2,5,6,12,16,17-hexaaza tricyclo[11.3.1.0^3,7]heptadeca-1(16),3,6,13(17),14-pentaene] | ≤ 100 | ≤ 100

More lines, now with the values ahead:

Row | IC50 [1] [nM] | IC50 [2] [nM] | SMILES
11 | ≤ 100 | ≤ 100 | Clc1cnc2nc1NCCCOc1nn(C3CCOC3)c(Cl)c1N2 (single isomer, unassigned) [E145, 4,14-Dichloro-5-(oxolan-3-yl)-8-oxa-2,5,6,12, 16,17-hexaaza tricyclo[11.3.1.0^3,7]heptadeca-1(16),3,6,13(17), 14-pentaene]
12 | ≤ 100 | ≤ 100 | Cc1c2c(nn1C1CCOCC1)OCCCCNc1nc(ncc1Cl)N2 [E109, 15-Chloro-4-methyl-5-(oxan-4-yl)-8-oxa-2,5,6,13,17,18-hexaaza tricyclo[12.3.1.0^3,7]octadeca-1(17),3,6,14(18),15-pentaene]
13 | ≤ 100 | ≤ 100 | Cc1[nH]nc2c1Nc1ncc(C(F)(F)F)c(n1)NCCCO2 [E433, 4-Methyl-14-(trifluoromethyl)-8-oxa-2,5,6,12,16,17-hexaazatricyclo[11.3.1.0^3,7]heptadeca-1(16),3,6,13(17),14-pentaene]
14 | ≤ 100 | ≤ 100 | Cc1c2c(nn1C1COCCC1(F)F)OCCCNc1nc(ncc1Cl)N2 (racemic) [E364, 14-Chloro-5-(4,4-difluorooxan-3-yl)-4-methyl-8-oxa-2,5,6,12,16,17-hexaazatricyclo[11.3.1.0^3,7]heptadeca-1(16),3,6,13(17),14-pentaene]
15 | ≤ 100 | ≤ 100 | Cc1c2c(nn1C1COC1)OCCCNc1nc(ncc1Br)N2 [E66, 14-Bromo-4-methyl-5-(oxetan-3-yl)-8-oxa-2,5,6,12,16,17-hexaazatricyclo[11.3.1.0^3,7]heptadeca-1(16),3,6,13(17),14-pentaene]
16 | ≤ 100 | ≤ 100 | Cc1c2c(nn1C1CCOCC1)OCCCNc1cc(ncc1Cl)N2 [E134, 14-Chloro-4-methyl-5-(oxan-4-yl)-8-oxa-2,5,6,12,16-pentaaza tricyclo[11.3.1.0^3,7]heptadeca-1(16),3,6,13(17),14-pentaene]
17 | ≤ 100 | ≤ 100 | FC1(F)CN(C2COC2)CCC1n1nc2c(c1Cl)Nc1ncc(Cl)c(n1)NCCCO2 (centres unmarked) [E446, 4,14-Dichloro-5[3,3-difluoro-1-(oxetan-3-yl)piperidin-4-yl]-8-oxa-2,5,6,12,16,17-hexaazatricyclo[11.3.1.0^3,7]heptadeca-1(16),3,6,13(17),14-pentaene]
18 | ≤ 100 | ≤ 100 | Cc1c2c(nn1C1CCOCC1)OCCCNc1nc(ncc1Cl)N2 [E1, 14-Chloro-4-methyl-5-(oxan-4-yl)-8-oxa-2,5,6,12,16,17-hexaazatricyclo [11.3.1.0^3,7]heptadeca-1(16),3,6,13(17),14-pentaene]
19 | ≤ 100 | ≤ 100 | Cc1c2c(nn1C1CCOCC1)OCC(C)CNc1nc(ncc1Cl)N2 (single isomer, unassigned) [E136, 14-chloro-4,10-dimethyl-5-(oxan-4-yl)-8-oxa-2,5,6,12,16,17-hexaazatricyclo[11.3.1.0^3,7]heptadeca-1(16),3,6,13(17),14-pentaene]
20 | ≤ 100 | ≤ 100 | Cc1c2c(nn1CCN1CCOCC1)OCCC(C)Nc1nc(ncc1Cl)N2 (single isomer, unassigned) [E213, 14-Chloro-4,11-dimethyl-5-[2-(morpholin-4-yl)ethyl]-8-oxa-2,5,6,12,16,17-hexaazatricyclo[11.3.1.0^3,7] heptadeca-1(16),3,6,13(17),14-pentaene]
21 | ≤ 100 | ≤ 100 | Cc1c2c(nn1C1CN(C3COC3)CCC1F)OCC[C@@H](C)Nc1nc(ncc1Cl)N2 (single isomer, unassigned) [E403]
22 | ≤ 100 | ≤ 100 | COC1CNc2nc(ncc2Cl)Nc2c(nn(C3CCOCC3)c2C)OC1 (single isomer, unassigned) [E3, 14-chloro-10-methoxy-4-methyl-5-(oxan-4-yl)-8-oxa-2,5,6,12,16,17-hexaazatricyclo [11.3.1.0^3,7]heptadeca-1(16),3,6,13(17),14-pentaene]
